Experimental data from patent publication US8338423B2, “Compositions for the treatment of hyperphenylalaninemia” (Universidad de Zaragoza, priority 2007, dated 2012).

Target: T1, R68S-PAH (Homo sapiens, UniProt P00439, R68S)
T1 construct: made in house; host or cells: E. coli
T1 sequence (P00439 1-452 R68S): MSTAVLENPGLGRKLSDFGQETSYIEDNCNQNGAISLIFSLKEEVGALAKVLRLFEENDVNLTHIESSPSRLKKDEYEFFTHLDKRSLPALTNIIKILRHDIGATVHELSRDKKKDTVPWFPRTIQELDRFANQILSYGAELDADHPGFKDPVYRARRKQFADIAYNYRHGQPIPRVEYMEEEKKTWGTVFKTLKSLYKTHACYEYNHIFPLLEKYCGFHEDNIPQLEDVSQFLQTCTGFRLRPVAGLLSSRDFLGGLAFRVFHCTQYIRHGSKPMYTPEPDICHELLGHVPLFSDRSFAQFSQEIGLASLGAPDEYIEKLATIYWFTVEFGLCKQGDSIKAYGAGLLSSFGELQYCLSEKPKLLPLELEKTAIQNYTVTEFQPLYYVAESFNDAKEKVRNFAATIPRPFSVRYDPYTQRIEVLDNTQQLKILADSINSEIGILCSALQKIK
Experiment: ANS-monitored thermal unfolding of R68S-PAH
Format: binding
Settings: for ΔT0.5 PAHR68S / T0.5 PAHR68S: 100 μM compound; for ΔT0.5 PAHR68S: vs no ligand; for T0.5 PAHR68S: mean ± SD; for stabilization of R68S-PAH: 100 μM ligand
Method: HTS for ligand-induced PAH stabilization was performed by monitoring the thermal denaturation of recombinant pure PAH protein in the presence of the extrinsic fluorescent probe 8-anilino 1-naphtalene sulfonic acid (ANS; Aldrich). HTS experiments were performed in a FluoDia T70 High Temperature Fluorescence Microplate Reader (Photon Technology International). Protein-ligand solutions (200 uL) were dispensed into 96-well microplates (ThermoFast®96 Skirted from Abgene) and overlayed with mineral oil. Protein solutions contained 0.1 mg/ml PAH (2 μM in PAH subunit) in 20 mM Hepes 200 mM NaCl pH 7.0 and 100 μM ANS. Ligands were added in DMSO, at 100 μM and 2.5% final concentration, respectively. Control experiments in the absence of DMSO and/or ligands were routinely performed in each microplate. Ligands (from MayBridge HitFinder™ Collection Database) were manually added to the microplates containing the protein solutions and incubated at 25° C. for 30 min before loading them onto the microplate reader. Thermal denaturation was monitored by following the increase in ANS fluorescence intensity due to protein unfolding λexc=395 and λern=500 nm; filters (Matulis D, et. Al., Biochemistry 2005, 44(13):5258-66). Fluorescence was registered in the 25-75° C. range, at a 1° C./min scan rate and allowing the system to equilibrate at each temperature for 1 min before fluorescence acquisition The experiments were real-time monitored using the software provided by the manufacturer. After smoothing and normalization of the experimental data, ligand induced stabilization was screened by estimation of the T0.5 as midpoint temperature of the transition defined as the temperature where half of the unfolded fluorescence signal (fu) is experimentally observed, using a home-built software written in C++ and the following expression (equation 1): […]
Additional thermal denaturation experiments were performed on a Cary Eclipse fluorescence spectrophotometer equipped with a temperature controlled Peltier multicell holder (Varian). Samples containing PAH (2 μM subunit) in 20 mM NaHepes, 200 mM NaCl, pH 7.0, 100 μM ANS, 2.5% DMSO and 0-100 μM ligands were incubated at room temperature for 30 min to allow equilibration prior to measurements. Thermal denaturation was monitored by following changes in ANS fluorescence emission (excitation at 395 and emission at 500 nm; slits 10 nm) at a 1 K/min in a 20-80° C. range. Each run contained 4 different samples, including a control in the absence of ligand. Data analysis was performed by fitting of the experimental fluorescence to equation 1.
Similar ligand-induced stabilization experiments were performed using i) a double truncated form of PAH equivalent to the catalytic domain (PAH103-428) lacking both the regulatory N-terminal domain and the tetramerization motif and existing as a functional dimmer and ii) the R68S-PAH mutant, associated to mild PKU and one of the few PKU mutants that display enough stability to be purified as a stable tetramer.

Row | SMILES | ΔT0.5 PAHR68S [°C] | T0.5 PAHR68S [°C] | stabilization of R68S-PAH
1 | Cc1onc(-c2ccccc2)c1-c1n[nH]c(N)c1C#N [Compound 5, 5-amino-3-(5-methyl-3-phenyl-4-isoxazolyl)-1H-pyrazole-4-carbonitrile] | 1.1 | 50.0 ± 1.4 | –
2 | Cn1cnc([N+](=O)[O-])c1N1CCN(C(c2ccccc2)c2ccccc2)CC1 [Compound 6, 1-benzhydryl-4-(1-methyl-4-nitro-1H-imidazol-5-yl)piperazine] | 3.2 | 52.1 ± 1.6 | significantly stabilized
3 | Nc1c(-c2ccc3ccccc3n2)c2ccc([N+](=O)[O-])cc2c(=O)n1Cc1ccccc1 [Compound 11, 3-amino-2-benzyl-7-nitro-4-(2-quinolyl)-1,2-dihydroisoquinolin-1-one] | 8.2 | 57.1 ± 0.3 | significantly stabilized
4 | Cc1ccnc(-n2c(=S)[nH]c3sc(C)c(C)c3c2=O)c1 [Compound 13, 5,6-dimethyl-3-(4-methyl-2-pyridinyl)-2-thioxo-2,3 dihydrothieno[2,3-d]pyrimidin-4(1H)-one] | 1.6 | 50.5 ± 0.5 | only a slight stabilized
